Values quoted from earlier work in patent publication US6491617B1, “Medical devices that resist restenosis” (St. Jude Medical, Inc., priority 1999, dated 2002).

Conditions: nitric oxide-releasing agent, test system not stated

| IC50 (read-out: IC-50 concentration, i.e., a concentration at 50 percent effectiveness) [nM] | Molecule | effective concentration [nM] |
| --- | --- | --- |
|  | NaO[NONO]Na [nitro percide] | 25 |
| 19.7 | NCCCNCCCCNCCCN [Spermine, H2N(CH2)3NH2^+(CH2)4N[NONO]^−(CH2)3NH2] |  |
